How the values were obtained:
Blattella germanica = experiment: Knockdown spray test on Blattella germanica, 0.1% w/v oil formulation (Test Example 2); assay type: in vivo; details: topical, 0.25 h, active ingredient 0.1% w/v, 1.5 ml sprayed, within 15 minutes, read-out: knockdown rate of the test insects within 15 minutes
Method: Ten Blattella germanica (5 males and 5 females) were released in a test container (8.75 cm in diameter, 7.5 cm in height, and the bottom made of 16 mesh metallic wire) with the inner wall on which butter was applied, and the container was placed on the bottom of a test chamber (bottom: 46 cm×46 cm, height: 70 cm). From a height of 60 cm above the upper surface of the container, 1.5 ml of the test drug solution was sprayed using a spray gun (a spraying pressure of 0.42 kg/cm^2). Thirty seconds after spraying, the container was taken out from the test chamber, and after 2 minutes, 5 minutes and 15 minutes, the number of knocked-down insects was counted to obtain a knockdown rate. The knockdown rate was calculated by the following equation.
(§1) Knockdown Rate (%)=(Number of Knocked-down Insects/Number of Tested Insects)×100

Culex pipiens pallens = experiment: Knockdown spray test on adult Culex pipiens pallens (Test Example 4); assay type: in vivo; details: topical, 0.25 h, active ingredient 0.1% w/v, 0.5 ml sprayed, within 15 minutes, read-out: knockdown rate of the test insects within 15 minutes
Method: Ten adult Culex pipiens pallens were released in a polyethylene cup (bottom diameter: 10.6 cm), and the cup was covered with a 16-mesh nylon gauze. The polyethylene cup was placed on the bottom of a test chamber (bottom: 46 cm×46 cm, height: 70 cm). From a height of 30 cm above the upper surface of the polyethylene cup, 0.5 ml of the test drug solution was sprayed using a spray gun (a spraying pressure of 0.4 kg/cm^2). Immediately after spraying, the cup was taken out from the test chamber, and after 2 minutes, 5 minutes and 15 minutes, the number of knocked-down insects was counted to obtain a knockdown rate. The knockdown rate was calculated by the following equation.
as §1

Row | SMILES | pest or weed control at 0.1 % strength (Blattella germanica) [%] | pest or weed control at 0.1 % strength (Culex pipiens pallens) [%]
1 | O=C(NCC1CCOC1)c1cc(COCc2cccc(F)c2)on1 (centres unmarked) [(74)] | ≥ 80 | ≥ 80
2 | O=C(NCC1CCOCC1)c1cc(COCc2cccc(F)c2)on1 [(75), N-(tetrahydropyran-4-ylmethyl)-5-(3-fluorobenzyloxymethyl)isoxazole-3-carboxamide] | ≥ 80 | ≥ 80
3 | O=C(NCC1CCOC1)c1cc(COCc2cccc(SC(F)(F)F)c2)on1 (centres unmarked) [(80), N-(tetrahydrofuran-3-ylmethyl)-5-(3-trifluoromethylthiobenzyloxymethyl)isoxazole-3-carboxamide] | ≥ 80 | ≥ 80
4 | COc1cccc(COCc2cc(C(=O)NCC3CCOCC3)no2)c1 [(85), N-(tetrahydropyran-4-ylmethyl)-5-(3-methoxybenzyloxymethyl) isoxazole-3-carboxamide] | ≥ 80 | ≥ 80
5 | CSc1cccc(COCc2cc(C(=O)NCC3CCOC3)no2)c1 (centres unmarked) [(88), N-(tetrahydrofuran-3-ylmethyl)-5-(3-methylthiobenzyloxymethyl)isoxazole-3-carboxamide] | ≥ 80 | ≥ 80
6 | O=C(NCC1CCOC1)c1cc(COCc2ccc(F)cc2)on1 (centres unmarked) [(89), N-(tetrahydrofuran-3-ylmethyl)-5-(4-fluorobenzyloxymethyl)isoxazole-3-carboxamide] | ≥ 80 | ≥ 80
7 | COc1ccc(COCc2cc(C(=O)NCC3CCOC3)no2)cc1 (centres unmarked) [(99), N-(tetrahydrofuran-3-ylmethyl)-5-(4-methoxybenzyloxymethyl) isoxazole-3-carboxamide] | ≥ 80 | ≥ 80
8 | O=C(NCC1CCOC1)c1cc(COCc2ccc(Cl)s2)on1 (centres unmarked) [(109), N-(tetrahydrofuran-3-ylmethyl)-5-(2-chlorothiophen-5-ylmethoxymethyl)isoxazole-3-carboxamide] | ≥ 80 | ≥ 80
9 | O=C(NCC1CCOCC1)c1cc(COCc2ccc(Cl)s2)on1 [(110), N-(tetrahydropyran-4-ylmethyl)-5-(2-chlorothiophen-5-ylmethoxymethyl)isoxazole-3-carboxamide] | ≥ 80 | ≥ 80
10 | O=C(NCC1CCOC1)c1cc(COCc2cc3ccccc3o2)on1 (centres unmarked) [(111)] | ≥ 80 | ≥ 80
11 | O=C(NCC1CCOC1)c1cc(COCc2ccc(-c3ccccc3)o2)on1 (centres unmarked) [(124), N-(tetrahydrofuran-3-ylmethyl)-5-(5-phenylfurfuryloxymethyl)isoxazole-3-carboxamide] | ≥ 80 | ≥ 80
12 | O=C(NCC1CCOC1)c1cc(COCCCc2ccccc2)on1 (centres unmarked) [(133), N-(tetrahydrofuran-3-ylmethyl)-5-(3-phenylpropoxymethyl)isoxazole-3-carboxamide] | ≥ 80 | ≥ 80
13 | O=C(NCC1CCOCC1)c1cc(COCCCc2ccccc2)on1 [(134), N-(tetrahydropyran-4-ylmethyl)-5-(3-phenylpropoxymethyl)isoxazole-3-carboxamide] | ≥ 80 | ≥ 80
14 | O=Cc1c(C(=O)NCC2CCOC2)noc1COCc1ccccc1 (centres unmarked) [(165), N-(tetrahydrofuran-3-ylmethyl)-(5-benzyloxymethyl-4-formyl) isoxazole-3-carboxamide] | ≥ 80 | 
15 | CC(F)c1c(C(=O)NCC2CCOC2)noc1COCc1ccccc1 (centres unmarked) [(172), N-(tetrahydrofuran-3-ylmethyl)-[5-benzyloxymethyl-4-(1-fluoroethyl)]isoxazole-3-carboxamide] | ≥ 80 | ≥ 80
16 | O=C(NCC1CCOC1)c1noc(COCc2ccccc2)c1CO (centres unmarked) [(174), N-(tetrahydrofuran-3-ylmethyl)-(5-benzyloxymethyl-4-hydroxymethyl)isoxazole-3-carboxamide] | ≥ 80 | ≥ 80
17 | CC(O)c1c(C(=O)NCC2CCOC2)noc1COCc1ccccc1 (centres unmarked) [(175), N-(tetrahydrofuran-3-ylmethyl)-[5-benzyloxymethyl-4-(1-hydroxyethyl)]isoxazole-3-carboxamide] | ≥ 80 | ≥ 80
18 | O=C(NCC1CCOCC1)c1cc(COc2ccccc2Cl)on1 [(177), N-(tetrahydropyran-4-ylmethyl)-5-(2-chlorophenoxymethyl)isoxazole-3-carboxamide] | ≥ 80 | ≥ 80

Row | SMILES | pest or weed control at 0.1 % strength (Blattella germanica) [%] | pest or weed control at 0.1 % strength (Culex pipiens pallens) [%]
19 | O=C(NCC1CCOC1)c1cc(COc2cccc(Cl)c2)on1 (centres unmarked) [(178), N-(tetrahydrofuran-3-ylmethyl)-5-(3-chlorophenoxymethyl)isoxazole-3-carboxamide] | ≥ 80 | ≥ 80
20 | O=C(NCC1CCOC1)c1cc(COc2ccc(Cl)cc2)on1 (centres unmarked) [(180)] | ≥ 80 | ≥ 80
21 | O=C(NCC1CCOC1)c1cc(COc2ccc(F)cc2)on1 (centres unmarked) [(184)] | ≥ 80 | ≥ 80
22 | O=C(NCC1CCOC1)c1cc(COc2ccc(Br)cc2)on1 (centres unmarked) [(186), N-(tetrahydrofuran-3-ylmethyl)-5-(4-bromophenoxymethyl)isoxazole-3-carboxamide] | ≥ 80 | ≥ 80
23 | CC(O)c1c(C(=O)NCC2CCOC2)noc1COCc1ccc2ccccc2c1 (centres unmarked) [(210), N-(tetrahydrofuran-3-ylmethyl)-1-hydroxyethyl-5-(2-naphthylmethoxymethyl)isoxazole-3-carboxamide] | ≥ 80 | ≥ 80
24 | O=C(NCC1CCOC1)c1noc(COCc2ccc3ccccc3c2)c1CF (centres unmarked) [(211), N-(tetrahydrofuran-3-ylmethyl)-4-fluoromethyl-5-(2-naphthylmethoxymethyl)isoxazole-3-carboxamide] | ≥ 80 | ≥ 80
25 | O=C(NCC1CCOC1)c1noc(COCc2ccc3ccccc3c2)c1Br (centres unmarked) [(256), N-(tetrahydrofuran-3-ylmethyl)-5-(2-naphthylmethoxymethyl)-4-bromoisoxazole-3-carboxamide] |  | ≥ 80
26 | O=C(NCC1CCOC1)c1cc(COCc2cc(F)ccc2F)on1 (centres unmarked) [(259), N-(tetrahydrofuran-3-ylmethyl)-5-(2,5-difluorobenzyloxymethyl)isoxazole-3-carboxamide] |  | ≥ 80
27 | O=C(NCC1CCOC1)c1cc(COCc2cc(Br)cc(Br)c2)on1 (centres unmarked) [(262), N-(tetrahydrofuran-3-ylmethyl)-5-(3,5-dibromobenzyloxymethyl)isoxazole-3-carboxamide] |  | ≥ 80
28 | O=C(NCC1CCOC1)c1cc(COCc2c(F)c(F)cc(F)c2F)on1 (centres unmarked) [(269), N-(tetrahydrofuran-3-ylmethyl)-5-(2,3,5,6-tetrafluorobenzyloxymethyl)isoxazole-3-carboxamide] |  | ≥ 80
29 | Cc1c(F)c(F)c(COCc2cc(C(=O)NCC3CCOC3)no2)c(F)c1F (centres unmarked) [(273), N-(tetrahydrofuran-3-ylmethyl)-5-(4-methyl-2,3,5,6-tetrafluorobenzyloxymethyl)isoxazole-3-carboxamide] |  | ≥ 80
30 | O=C(NCC1CCOC1)c1noc(COCc2ccc3ccccc3c2)c1I (centres unmarked) [(295), N-(tetrahydrofuran-3-ylmethyl)-5-(2-naphthylmethoxymethyl)-4-iodoisoxazole-3-carboxamide] |  | ≥ 80
31 | O=C(NCC1CCOC1)c1noc(COCc2ccccc2F)c1Br (centres unmarked) [(296), N-(tetrahydrofuran-3-ylmethyl)-5-(2-fluorobenzyloxymethyl)-4-bromoisoxazole-3-carboxamide] |  | ≥ 80
32 | O=C(NCC1CCOC1)c1noc(COCc2ccccc2F)c1I (centres unmarked) [(297), N-(tetrahydrofuran-3-ylmethyl)-5-(2-fluorobenzyloxymethyl)-4-iodoisoxazole-3-carboxamide] |  | ≥ 80
33 | O=C(NCC1CCOC1)c1cc(Cc2cc(Cl)cc(Cl)c2)on1 (centres unmarked) [(307), N-(tetrahydrofuran-3-ylmethyl)-5-(3,5-dichlorobenzyl)isoxazole-3-carboxamide] |  | ≥ 80
34 | O=C(NCC1CCOC1)c1cc(Cc2ccc(C(F)(F)F)cc2)on1 (centres unmarked) [(316), N-(tetrahydrofuran-3-ylmethyl)-5-(4-trifluoromethylbenzyl)isoxazole-3-carboxamide] |  | ≥ 80
35 | O=C(NCC1CCOC1)c1cc(Cc2ccccc2F)on1 (centres unmarked) [(320), N-(tetrahydrofuran-3-ylmethyl)-5-(2-fluorobenzyl)isoxazole-3-carboxamide] |  | ≥ 80
36 | O=C(NCC1CCOC1)c1cc(Cc2ccccc2Cl)on1 (centres unmarked) [(323), N-(tetrahydrofuran-3-ylmethyl)-5-(2-chlorobenzyl)isoxazole-3-carboxamide] |  | ≥ 80

Reference: patent US20150344466A1 (SUMITOMO CHEMICAL COMPANY, LIMITED, priority 2013, published 2015)
